The source of these data is patent US20250051338A1, “TYK2 DEGRADERS AND USES THEREOF” (Kymera Therapeutics, Inc., priority 2021, published 2025).

What all share (assay type): cell-based
Assay [1] concerns the target T1, TYK2 (Homo sapiens, UniProt P29597). In words: TYK2 degradation MSD assay in human PBMC cells. As to conditions: 4 to 24 hours incubation, read-out: TYK2 MSD DC50 rating in human PBMC. Details: endogenous in cells; host or cells: human PBMC. Summed up:
(§1)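 Compound-driven TYK2 loss is measured with a Meso Scale Discovery sandwich assay on whole-cell lysates. Cells are incubated 4 to 24 hours at 37° C with nine 1:3-diluted doses topping at 1 to 10 μM, and DC50 values derive from four-parameter curve fitting.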

The target of assay [2] is T1, TYK2. The experiment in a line: TYK2 degradation MSD assay in EBV-B cells. Details: endogenous in cells; host or cells: EBV-B cells. The conditions noted are these: 4 to 24 hours incubation, read-out: TYK2 MSD DC50 rating in EBV-B. Summed up: as §1
Assay [3] addresses T1, TYK2. In words: TYK2 degradation MSD assay in OCI-LY10 cells. Details: endogenous in cells; host or cells: EBV-B cells. As to conditions: 4 to 24 hours incubation, read-out: TYK2 MSD DC50 rating in OCI-LY10. Summed up: as §1

T1 sequence (P29597 whole entry): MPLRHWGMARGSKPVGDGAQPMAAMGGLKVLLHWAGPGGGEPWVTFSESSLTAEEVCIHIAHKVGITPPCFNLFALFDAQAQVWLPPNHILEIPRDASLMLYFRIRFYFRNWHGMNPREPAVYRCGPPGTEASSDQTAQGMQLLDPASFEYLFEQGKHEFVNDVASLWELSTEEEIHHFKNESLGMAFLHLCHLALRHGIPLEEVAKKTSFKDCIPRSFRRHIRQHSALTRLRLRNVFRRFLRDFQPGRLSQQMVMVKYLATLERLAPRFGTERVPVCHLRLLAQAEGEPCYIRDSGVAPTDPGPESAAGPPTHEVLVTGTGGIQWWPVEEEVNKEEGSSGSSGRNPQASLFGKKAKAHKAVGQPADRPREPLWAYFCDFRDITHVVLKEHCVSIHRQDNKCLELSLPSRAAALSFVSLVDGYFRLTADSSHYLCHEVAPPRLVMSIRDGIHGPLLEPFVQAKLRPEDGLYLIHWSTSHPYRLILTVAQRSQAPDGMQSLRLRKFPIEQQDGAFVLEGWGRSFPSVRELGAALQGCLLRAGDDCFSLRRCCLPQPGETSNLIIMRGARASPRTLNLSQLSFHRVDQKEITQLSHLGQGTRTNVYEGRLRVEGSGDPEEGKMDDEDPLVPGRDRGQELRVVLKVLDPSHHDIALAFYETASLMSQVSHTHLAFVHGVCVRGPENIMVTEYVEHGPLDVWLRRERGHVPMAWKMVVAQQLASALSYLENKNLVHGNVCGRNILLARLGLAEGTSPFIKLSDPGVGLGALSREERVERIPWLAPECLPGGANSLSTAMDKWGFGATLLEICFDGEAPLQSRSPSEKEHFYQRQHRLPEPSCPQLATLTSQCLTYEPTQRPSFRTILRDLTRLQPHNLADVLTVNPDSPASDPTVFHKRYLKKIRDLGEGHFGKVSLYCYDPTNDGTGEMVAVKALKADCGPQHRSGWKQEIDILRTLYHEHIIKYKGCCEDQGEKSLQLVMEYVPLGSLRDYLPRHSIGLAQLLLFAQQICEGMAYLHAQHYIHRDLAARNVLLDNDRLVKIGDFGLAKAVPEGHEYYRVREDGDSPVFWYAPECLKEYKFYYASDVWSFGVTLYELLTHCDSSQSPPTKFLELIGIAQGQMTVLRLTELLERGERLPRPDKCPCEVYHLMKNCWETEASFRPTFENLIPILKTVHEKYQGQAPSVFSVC

Regarding `CNc1cc(Nc2cccn(-c3ccc(C(=O)N4CCC(N(C)CC5CCN(c6ccc(-c7ccc8c(c7)n(C)c(=O)n8C7CCC(=O)NC7=O)cc6)C5)CC4)cn3)c2=O)nn2c(C(=O)N[C@@H]3C[C@@H]3F)cnc12` (stereo partly drawn) [Example K446], the half-maximal degradation concentration (DC50) at TYK2 [1] was greater than 100 nM; at TYK2 [2], greater than 100 nM; at TYK2 [3], less than 1 nM.

Turning to `CNc1cc(Nc2cccn(-c3ccc(C(=O)NC4CCC(CN(C)CC5CCN(Cc6ccc7c(c6)n(C)c(=O)n7C6CCC(=O)NC6=O)CC5)CC4)cn3)c2=O)nn2c(C(=O)N[C@@H]3C[C@@H]3F)cnc12` (stereo partly drawn) [Example K447], the results for the 50% degradation concentration (DC50) on TYK2 [1], on TYK2 [2] and on TYK2 [3] were greater than 100 nM, greater than 100 nM and less than 1 nM, respectively.

`CNc1cc(Nc2cccn(-c3ccc(C(=O)N[C@H]4CC[C@H](CN(C)C5CCN(Cc6cccc7c6n(C)c(=O)n7C6CCC(=O)NC6=O)CC5)CC4)cn3)c2=O)nn2c(C(=O)N[C@@H]3C[C@@H]3F)cnc12` (stereo partly drawn) [Example K449]: the figures for the DC50 on TYK2 [1], at TYK2 [2] and at TYK2 [3] were greater than 100 nM, greater than 100 nM and less than 1 nM, respectively.

With `CNc1cc(Nc2cccn(-c3ccc(C(=O)N4CC(CN5CCC(c6cccc7c6n(C)c(=O)n7C6CCC(=O)NC6=O)CC5)C4)cn3)c2=O)nn2c(C(=O)N[C@@H]3C[C@@H]3F)cnc12` (stereo partly drawn) [Example K450], the DC50 at TYK2 [1] is greater than 100 nM; on TYK2 [2] it was greater than 100 nM; at TYK2 [3], less than 1 nM.

`CNc1cc(Nc2cccn(-c3ccc(C(=O)N4CCC(CN5CCCC(c6cccc7c6n(C)c(=O)n7C6CCC(=O)NC6=O)C5)CC4)cn3)c2=O)nn2c(C(=O)N[C@@H]3C[C@@H]3F)cnc12` (stereo partly drawn) [Example K451]: the DC50 at TYK2 [1] is greater than 100 nM; at TYK2 [2] it was greater than 100 nM; on TYK2 [3] it was less than 1 nM.

Regarding `Cn1c(=O)n(C2CCC(=O)NC2=O)c2cccc(N3CCC4(CC3)CN(Cc3ccc(-c5cccc(Nc6ccc7ncc(C(=O)NC8CC8)n7n6)c5)nc3)C4)c21` (stereo not drawn) [Example K452], the DC50 at TYK2 [1], on TYK2 [2] and on TYK2 [3] was greater than 100 nM in each case.

As to `CNc1cc(Nc2cccn(-c3ccc(C(=O)N4CCC(N5CCC(N6CCN(c7ccc8c(c7)n(C)c(=O)n8C7CCC(=O)NC7=O)CC6)CC5)CC4)cn3)c2=O)nn2c(C(=O)N[C@@H]3C[C@@H]3F)cnc12` (stereo partly drawn) [Example K453], the half-maximal degradation concentration (DC50) at TYK2 [1] is greater than 100 nM; on TYK2 [2], less than 1 nM; at TYK2 [3] it was less than 1 nM.

As to `CNc1cc(Nc2cccn(-c3ccc(CN4CCN([C@H]5CC[C@H](c6ccc(-c7ccc8c(c7)n(C)c(=O)n8C7CCC(=O)NC7=O)cc6)CC5)CC4)cn3)c2=O)nn2c(C(=O)N[C@@H]3C[C@@H]3F)cnc12` (stereo partly drawn) [Example K454], the DC50 at TYK2 [1] was greater than 100 nM; on TYK2 [2], less than 1 nM; at TYK2 [3] it was less than 1 nM.

In the case of `CNc1cc(Nc2cccc(-c3ccc(CN4CCN(c5ccc(-c6ccc7c(c6)n(C)c(=O)n7C6CCC(=O)NC6=O)cn5)C(=O)C4)cn3)c2)nn2c(C(=O)N[C@@H]3C[C@@H]3F)cnc12` (stereo partly drawn) [Example K455], the figures for the half-maximal degradation concentration (DC50) on TYK2 [1], at TYK2 [2] and on TYK2 [3] were greater than 100 nM, less than 1 nM and less than 1 nM, respectively.

Take `Cn1c(=O)n(C2CCC(=O)NC2=O)c2ccc(-c3ccc(N4CCN(Cc5ccc(-c6cccc(Oc7ccc8ncc(C(=O)NC9CC9)n8n7)c6)nc5)CC4)cc3)cc21` (stereo not drawn) [Example K456]: the DC50 at TYK2 [1], on TYK2 [2] and at TYK2 [3] was greater than 100 nM in each case.

In the case of `CNc1cc(Nc2cccn(-c3ccc(CN4CCN(c5ccc(-c6ccc7c(c6)n(C)c(=O)n7C6CCC(=O)NC6=O)cn5)C(=O)C4)cn3)c2=O)nn2c(C(=O)N[C@@H]3C[C@@H]3F)cnc12` (stereo partly drawn) [Example K457], the DC50 on TYK2 [1] was greater than 100 nM; on TYK2 [2] it was greater than 100 nM; on TYK2 [3], less than 1 nM.

As for `Cn1c(=O)n(C2CCC(=O)NC2=O)c2ccc(-c3ccc(N4CCN(Cc5ccc(-c6cccc(Nc7ccc8ncc(C(=O)NC9CC9)n8n7)c6)nc5)CC4=O)nc3)cc21` (stereo not drawn) [Example K459], the 50% degradation concentration (DC50) on TYK2 [1], at TYK2 [2] and on TYK2 [3] was greater than 100 nM each time.

`CNc1cc(Nc2cccc(-c3ccc(CN4CCN(c5cccc6c5n(C)c(=O)n6C5CCC(=O)NC5=O)CC4)cn3)c2)nn2c(C(=O)N[C@@H]3C[C@@H]3F)cnc12` (stereo partly drawn) [Example K460]: the DC50 was greater than 100 nM on TYK2 [1], greater than 100 nM on TYK2 [2] and less than 1 nM at TYK2 [3].

For the compound `CNc1cc(Nc2cccc(-c3ccc(CNCc4ccc(N5CCC(N6CCC(c7ccc8c(c7)n(C)c(=O)n8C7CCC(=O)NC7=O)C6)CC5)cc4)cn3)c2)nn2c(C(=O)N[C@@H]3C[C@@H]3F)cnc12` (stereo partly drawn) [Example K461], the DC50 on TYK2 [1] was greater than 100 nM; on TYK2 [2] it was greater than 100 nM; at TYK2 [3], 1 to 10 nM.

In the case of `CNc1cc(Nc2cccn(-c3ccc(C(=O)N4CCC(N5CCC(N6CCN(c7cccc8c7n(C)c(=O)n8C7CCC(=O)NC7=O)CC6)CC5)CC4)cn3)c2=O)nn2c(C(=O)N[C@@H]3C[C@@H]3F)cnc12` (stereo partly drawn) [Example K462], the DC50 on TYK2 [1] is greater than 100 nM; at TYK2 [2] it was greater than 100 nM; on TYK2 [3], 1 to 10 nM.

`CNc1cc(Nc2cccc(-c3ccc(CN4CCN(C5CCC(c6ccc(-c7ccc8c(c7)n(C)c(=O)n8C7CCC(=O)NC7=O)cc6)CC5)CC4)cn3)c2)nn2c(C(=O)N[C@@H]3C[C@@H]3F)cnc12` (stereo partly drawn) [Example K463]: the figures for the 50% degradation concentration (DC50) at TYK2 [1], at TYK2 [2] and on TYK2 [3] were greater than 100 nM, greater than 100 nM and 1 to 10 nM, respectively.

For `CNc1cc(Nc2cccc(-c3ccc(CN4CC5(CCN(c6cccc7c6n(C)c(=O)n7C6CCC(=O)NC6=O)CC5)C4)cn3)c2)nn2c(C(=O)N[C@@H]3C[C@@H]3F)cnc12` (stereo partly drawn) [Example K464], the DC50 at TYK2 [1] was greater than 100 nM; at TYK2 [2], greater than 100 nM; at TYK2 [3] it was 1 to 10 nM.

Regarding `CNc1cc(Nc2cccc(N3CCC(CN4CCC(C#Cc5cccc6c5n(C)c(=O)n6C5CCC(=O)NC5=O)CC4)CC3)c2)nn2c(C(=O)N[C@@H]3C[C@@H]3F)cnc12` (stereo partly drawn) [Example K465], the DC50 at TYK2 [1] is greater than 100 nM; at TYK2 [2], greater than 100 nM; on TYK2 [3], 1 to 10 nM.

With `CNc1cc(Nc2cccc(N3CCN(CC4CCN(c5ccc(-c6ccc7c(c6)n(C)c(=O)n7C6CCC(=O)NC6=O)cc5)CC4)CC3)c2)nn2c(C(=O)N[C@@H]3C[C@@H]3F)cnc12` (stereo partly drawn) [Example K466], the 50% degradation concentration (DC50) was greater than 100 nM on TYK2 [1], less than 1 nM at TYK2 [2] and greater than 100 nM on TYK2 [3].

As for `CNc1cc(Nc2cccc(-c3ccc(CN4CCN(c5cccc6c(N7CCC(=O)NC7=O)cncc56)CC4)cn3)c2)nn2c(C(=O)N[C@@H]3C[C@@H]3F)cnc12` [Example K467], the DC50 is greater than 100 nM on TYK2 [1], 10 to 100 nM on TYK2 [2] and greater than 100 nM at TYK2 [3].

Turning to `O=C1CCN(c2cnc3cc(CCOCCOCCOCCOCCNc4cc(Nc5cccn(-c6ccccn6)c5=O)nn5c(C(=O)N[C@@H]6C[C@@H]6F)cnc45)ccn23)C(=O)N1` [Example K468], the DC50 on TYK2 [1] is 10 to 100 nM; on TYK2 [2], greater than 100 nM; on TYK2 [3], greater than 100 nM.

For the compound `CNc1cc(Nc2cccc(-c3ccc(CN4CCN(c5ccc(-c6ccc7c(c6)n(C)c(=O)n7C6CCC(=O)NC6=O)cc5)CC4)cn3)c2OC)nn2c(C(=O)N[C@@H]3C[C@@H]3F)cnc12` (stereo partly drawn) [Example K479], the 50% degradation concentration (DC50) is greater than 100 nM on TYK2 [1], less than 1 nM at TYK2 [2] and less than 1 nM on TYK2 [3].

Consider `CNc1cc(-c2ccc(-c3ccc(CN4CCC(N5CC(N6CCN(c7ccc8c(c7)n(C)c(=O)n8C7CCC(=O)NC7=O)CC6)C5)CC4)cn3)cc2)nn2c(C(=O)N[C@@H]3C[C@@H]3F)cnc12` (stereo partly drawn) [Example K480], for which the DC50 was greater than 100 nM on TYK2 [1], greater than 100 nM at TYK2 [2] and less than 1 nM at TYK2 [3].

In the case of `CNc1cc(N(C)c2cccc(-c3ccc(CN4CCN(c5ccc(-c6ccc7c(c6)n(C)c(=O)n7C6CCC(=O)NC6=O)cc5)CC4)cn3)c2)nn2c(C(=O)N[C@@H]3C[C@@H]3F)cnc12` (stereo partly drawn) [Example K481], the 50% degradation concentration (DC50) on TYK2 [1], on TYK2 [2] and on TYK2 [3] was greater than 100 nM each time.

Take `CNc1cc(Nc2cccc(-c3ccc(CN4CCN(c5ccc(-c6ccc7c(c6)n(C)c(=O)n7C6CCC(=O)NC6=O)cc5)CC4)cn3)c2)nn2c(C(=O)NC3CC3OC)cnc12` (stereo not drawn) [Example K482]: the DC50 is greater than 100 nM at TYK2 [1], greater than 100 nM at TYK2 [2] and 1 to 10 nM at TYK2 [3].

`CNc1cc(Nc2cccc(-c3ccc(CN4CCN(c5ccc(-c6ccc7c(c6)n(C)c(=O)n7C6CCC(=O)NC6=O)cc5)CC4)cn3)c2)nn2c(C(=O)NC3CCC3)cnc12` (stereo not drawn) [Example K483]: the 50% degradation concentration (DC50) on TYK2 [1] is greater than 100 nM; at TYK2 [2] it was greater than 100 nM; at TYK2 [3], 1 to 10 nM.

As for `Cn1c(=O)n(C2CCC(=O)NC2=O)c2ccc(-c3ccc(N4CCN(Cc5ccc(-c6cccc(Nc7cc(C8CC8)c8ncc(C(=O)N[C@@H]9C[C@@H]9F)n8n7)c6)nc5)CC4)cc3)cc21` (stereo partly drawn) [Example K484], the DC50 at TYK2 [1], at TYK2 [2] and on TYK2 [3] was greater than 100 nM throughout.

`CNc1cc(Nc2cccc(CN3CCN(c4ccc(-c5ccc6c(c5)n(C)c(=O)n6C5CCC(=O)NC5=O)cc4)CC3)c2)nn2c(C(=O)N[C@@H]3C[C@@H]3F)cnc12` (stereo partly drawn) [Example K486]: the DC50 is greater than 100 nM on TYK2 [1], greater than 100 nM on TYK2 [2] and less than 1 nM on TYK2 [3].

As for `CNc1cc(Nc2cccc(-c3ccc(CN4CCC(N5CC(N6CCN(c7ccc8c(c7)n(C)c(=O)n8C7CCC(=O)NC7=O)CC6)C5)CC4)cn3)c2OC)nn2c(C(=O)N[C@@H]3C[C@@H]3F)cnc12` (stereo partly drawn) [Example K487], the half-maximal degradation concentration (DC50) at TYK2 [1] was greater than 100 nM; at TYK2 [2], greater than 100 nM; on TYK2 [3], less than 1 nM.

As a reminder, the DC50 is the midpoint of the concentration-degradation curve.
